Experimental data from PMC7413254 (Nature Communications, 2020).
Where two headings read alike, the source gives them in different places.

Tests used:
PfCRT [1] = test: Potential co-substrates tested for influx of VF-6 via PfCRT into the oocyte; assay type: cell-based, Plasmodium falciparum; set-up: key: X: Compounds that have been tested as potential co-substrates but are not required for influx of VF-6 via PfCRT into the oocyte
PfCRT^Ecu1110 [2] = molecular target: T1, PfCRT^Ecu1110 (Plasmodium falciparum, UniProt Q9N623, A220S/I356L/K76T/N326D); test: [3H]CQ uptake into Xenopus oocytes, cis-inhibition by unlabelled solute; assay type: cell-based
T1 sequence (Q9N623 whole entry A220S/I356L/K76T/N326D): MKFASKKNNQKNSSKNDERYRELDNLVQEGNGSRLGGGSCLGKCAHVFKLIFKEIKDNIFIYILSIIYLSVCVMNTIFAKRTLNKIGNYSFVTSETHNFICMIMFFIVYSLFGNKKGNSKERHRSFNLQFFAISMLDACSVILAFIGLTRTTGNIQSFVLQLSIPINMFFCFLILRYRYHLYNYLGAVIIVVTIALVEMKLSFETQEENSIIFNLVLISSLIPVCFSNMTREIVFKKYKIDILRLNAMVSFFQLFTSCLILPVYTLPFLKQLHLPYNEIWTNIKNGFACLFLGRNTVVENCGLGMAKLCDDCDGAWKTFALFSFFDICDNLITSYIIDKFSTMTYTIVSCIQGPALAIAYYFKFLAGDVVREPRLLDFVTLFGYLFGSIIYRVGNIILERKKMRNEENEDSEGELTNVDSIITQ
Method in brief: (§1)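 ND96, pH 5.5, 1.5 h, 27.5 °C; uptake direction acidic outside → oocyte cytosol, mimicking efflux from digestive vacuole. Ice-cold wash stop, 10% SDS lysis, scintillation counting. Ten oocytes/treatment, ≥4 independent experiments.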

PfCRT^Dd2 [3] = molecular target: T2, PfCRT^Dd2 (Plasmodium falciparum, UniProt Q9N623, A220S/I356T/K76T/M74I/N326S/N75E/Q271E/R371I); test: as above; assay type: cell-based
T2 sequence (Q9N623 whole entry A220S/I356T/K76T/M74I/N326S/N75E/Q271E/R371I): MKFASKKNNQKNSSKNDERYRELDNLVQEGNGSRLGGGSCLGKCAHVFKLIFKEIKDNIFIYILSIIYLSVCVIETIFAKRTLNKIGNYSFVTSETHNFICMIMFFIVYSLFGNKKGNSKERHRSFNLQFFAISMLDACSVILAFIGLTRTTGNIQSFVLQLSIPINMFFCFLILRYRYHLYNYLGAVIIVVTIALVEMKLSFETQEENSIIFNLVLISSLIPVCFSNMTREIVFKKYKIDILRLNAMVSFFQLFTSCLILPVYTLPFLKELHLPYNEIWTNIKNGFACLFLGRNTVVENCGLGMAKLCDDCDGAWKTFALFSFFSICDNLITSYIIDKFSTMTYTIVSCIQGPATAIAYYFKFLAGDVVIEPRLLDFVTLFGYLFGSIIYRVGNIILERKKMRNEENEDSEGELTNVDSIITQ
Method in brief: as §1

PfCRT^3D7 [4] = molecular target: T3, PfCRT^3D7 (Plasmodium falciparum, UniProt Q8IBZ9); test: cell-based; assay type: cell-based; conditions: total [3H]CQ transport; for inhibition at 500 µM: [test solute] = 0.5 mM; for inhibition at 1000 µM: [test solute] = 1 mM; for inhibition at 2000 µM: [test solute] = 2 mM
T3 sequence (Q8IBZ9 59-398): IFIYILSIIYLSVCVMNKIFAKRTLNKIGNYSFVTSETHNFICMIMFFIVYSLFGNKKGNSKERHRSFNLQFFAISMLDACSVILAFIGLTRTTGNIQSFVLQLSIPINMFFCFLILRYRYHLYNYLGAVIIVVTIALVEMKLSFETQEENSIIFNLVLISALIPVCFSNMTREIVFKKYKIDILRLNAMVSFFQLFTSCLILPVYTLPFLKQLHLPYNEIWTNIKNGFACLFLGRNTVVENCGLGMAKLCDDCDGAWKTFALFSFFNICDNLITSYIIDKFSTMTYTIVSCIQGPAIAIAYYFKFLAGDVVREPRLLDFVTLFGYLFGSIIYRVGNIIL
Method in brief: as §1

non-expressing oocytes [5] = assay type: cell-based, Xenopus laevis; conditions: total [3H]CQ transport; for Uptake of [3H]CQ (% non-expressing oocyte control), trans-stimulation: non-expressing oocytes, normalised to the oocyte type control; for Uptake of [3H]CQ (% PfCRTDd2 control), trans-stimulation, non-expressing oocytes: mean ± SEM, SEM
Method in brief: (§2)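 Oocytes (ten per treatment, ≥4 independent frogs/days) were preloaded by injecting VF-6 in 25 nL ND96 at pH 5.0, 5.5, 6.0 or 7.0, or Na^+-free choline buffer, then uptake run 1.5 h, 27.5 °C, ND96 pH 5.5 by default. Internal concentrations assumed ~400 nL oocyte volume.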

PfCRT^Ecu1110 [6] = molecular target: T1, PfCRT^Ecu1110; test: cell-based; assay type: cell-based; conditions: […]
Method in brief: as §2

PfCRT^3D7 [7] = molecular target: T3, PfCRT^3D7; test: cell-based; assay type: cell-based
Method in brief: as §2

PfCRT^Dd2 [8] = molecular target: T2, PfCRT^Dd2; test: cell-based; assay type: cell-based; conditions: […]; for activity at 45000 µM: [test solute]i = 45 mM (30 mM for some solutes due to solubility)
Method in brief: as §2

PfNT1 = molecular target: T4, PfNT1 (Plasmodium falciparum, UniProt Q8IDM6); test: cell-based; assay type: cell-based; conditions: for activity at 5000 µM: total [3H]CQ transport
T4 construct: expressed in transfected cells; host or cells: Xenopus laevis oocytes (stage V-VI), cRNA-injected
T4 sequence (Q8IDM6 whole entry): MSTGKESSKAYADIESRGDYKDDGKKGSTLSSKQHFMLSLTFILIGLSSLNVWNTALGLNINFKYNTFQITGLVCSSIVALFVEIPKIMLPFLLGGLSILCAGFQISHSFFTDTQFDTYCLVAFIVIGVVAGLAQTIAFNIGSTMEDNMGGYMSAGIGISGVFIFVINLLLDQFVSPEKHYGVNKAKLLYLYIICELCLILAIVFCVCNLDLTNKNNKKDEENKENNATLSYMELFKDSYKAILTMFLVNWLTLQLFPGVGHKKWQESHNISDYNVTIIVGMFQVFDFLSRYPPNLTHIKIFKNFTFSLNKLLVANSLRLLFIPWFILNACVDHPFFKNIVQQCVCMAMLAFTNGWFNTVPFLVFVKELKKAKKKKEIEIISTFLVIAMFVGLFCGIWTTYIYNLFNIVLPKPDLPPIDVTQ
Method in brief: as §2

non-expressing oocytes [9] = test: cells; assay type: cell-based, Xenopus laevis; conditions: Xenopus laevis, total [3H]CQ transport; for inhibition at 500 µM: [test solute] = 0.5 mM; for inhibition at 1000 µM: [test solute] = 1 mM; for inhibition at 2000 µM: [test solute] = 2 mM
Method in brief: as §1

PfCRT [10] = test: Test of solutes as potential co-substrates for influx of VF-6 via PfCRT into the oocyte; assay type: cell-based, Plasmodium falciparum; set-up: key: X: Compounds that have been tested as potential co-substrates but are not required for influx of VF-6 via PfCRT into the oocyte; conditions: X = tested
[11] = read-out: PfCRT-mediated [3H]CQ transport, cis-inhibition (% PfCRTEcu1110 control)
[12] = read-out: Uptake of [3H]CQ (% PfCRTDd2 control), cis-inhibition, PfCRTEcu1110, SEM
[13] = read-out: Uptake of [3H]CQ (% PfCRTEcu1110 control), cis-inhibition
[14] = read-out: [3H]CQ transport (% PfCRTEcu1110 control), cis-inhibition, PfCRTEcu1110, SEM
[15] = read-out: PfCRT-mediated [3H]CQ transport, cis-inhibition (% PfCRTDd2 control)
[16] = read-out: Uptake of [3H]CQ (% PfCRTDd2 control), cis-inhibition
[17] = read-out: Uptake of [3H]CQ (% PfCRTDd2 control), cis-inhibition, PfCRTDd2, SEM
[18] = read-out: [3H]CQ transport (% PfCRTDd2 control), cis-inhibition, PfCRTDd2, SEM
[19] = PfCRT3D7 oocytes, normalised to the oocyte type control, read-out: Uptake of [3H]CQ (% PfCRT3D7 control), cis-inhibition
[20] = mean ± SEM, SEM, read-out: Uptake of [3H]CQ (% PfCRTDd2 control), cis-inhibition, PfCRT3D7
[21] = Oocyte, mean ± SEM, SEM, read-out: Uptake of [3H]CQ (% PfCRTDd2 control), cis-inhibition, non-expressing oocytes
[22] = non-expressing oocytes, normalised to the oocyte type control, read-out: Uptake of [3H]CQ (% non-expressing oocyte control), cis-inhibition

CC(C)C[C@H](N)C(=O)O [L-leucine]
Tested as potential co-substrate but not required for influx of VF-6 via PfCRT into the oocyte (PfCRT [1]): X
inhibition at 500 µM (PfCRT^Ecu1110 [2]; [11]): 99 ± 5.1%
inhibition at 1000 µM (PfCRT^Ecu1110 [2]; [11]): 97 ± 3.1%
inhibition at 2000 µM (PfCRT^Ecu1110 [2]; [11]): 99 ± 2.1%
inhibition at 500 µM (PfCRT^Ecu1110 [2]; [12]): 33 ± 1.6%
inhibition at 1000 µM (PfCRT^Ecu1110 [2]; [12]): 32 ± 1.3%
inhibition at 2000 µM (PfCRT^Ecu1110 [2]; [12]): 33 ± 1.5%
inhibition at 500 µM (PfCRT^Ecu1110 [2]; [13]): 102 ± 4.2%
inhibition at 1000 µM (PfCRT^Ecu1110 [2]; [13]): 98 ± 4.2%
inhibition at 2000 µM (PfCRT^Ecu1110 [2]; [13]): 100 ± 3.2%
inhibition at 500 µM (PfCRT^Ecu1110 [2]; [14]): 30 ± 1.5%
inhibition at 1000 µM (PfCRT^Ecu1110 [2]; [14]): 29 ± 0.6%
inhibition at 2000 µM (PfCRT^Ecu1110 [2]; [14]): 30 ± 0.7%
inhibition at 500 µM (PfCRT^Dd2 [3]; [15]): 98 ± 4.7%
inhibition at 1000 µM (PfCRT^Dd2 [3]; [15]): 96 ± 4.2%
inhibition at 2000 µM (PfCRT^Dd2 [3]; [15]): 98 ± 4.7%
inhibition at 500 µM (PfCRT^Dd2 [3]; [16]): 100 ± 3.8%
inhibition at 1000 µM (PfCRT^Dd2 [3]; [16]): 98 ± 3.1%
inhibition at 2000 µM (PfCRT^Dd2 [3]; [16]): 100 ± 1.9%
inhibition at 500 µM (PfCRT^Dd2 [3]; [17]): 100 ± 3.8%
inhibition at 1000 µM (PfCRT^Dd2 [3]; [17]): 98 ± 3.1%
inhibition at 2000 µM (PfCRT^Dd2 [3]; [17]): 100 ± 1.9%
inhibition at 500 µM (PfCRT^Dd2 [3]; [18]): 98 ± 4.7%
inhibition at 2000 µM (PfCRT^Dd2 [3]; [18]): 98 ± 4.7%
inhibition at 500 µM (PfCRT^3D7 [4]; [19]): 98 ± 3.6%
inhibition at 1000 µM (PfCRT^3D7 [4]; [19]): 100 ± 4.7%
inhibition at 2000 µM (PfCRT^3D7 [4]; [19]): 99 ± 3.6%
inhibition at 500 µM (PfCRT^3D7 [4]; [20]): 3.2 ± 0.08%
inhibition at 1000 µM (PfCRT^3D7 [4]; [20]): 3.1 ± 0.08%
inhibition at 2000 µM (PfCRT^3D7 [4]; [20]): 3.8 ± 0.05%
Uptake of [3H]CQ (% non-expressing oocyte control), trans-stimulation (non-expressing oocytes [5]; [test solute]i = 5 mM): 100 ± 3.2 % non-expressing oocyte control
Uptake of [3H]CQ (% non-expressing oocyte control), trans-stimulation (non-expressing oocytes [5]; [test solute]i = 45 mM (30 mM for some solutes due to solubility)): 100 ± 3.3 % non-expressing oocyte control
Uptake of [3H]CQ (% PfCRTDd2 control), trans-stimulation, non-expressing oocytes (non-expressing oocytes [5]; [test solute]i = 5 mM (intracellular)): 3.2 ± 0.08 % PfCRTDd2 control
Uptake of [3H]CQ (% PfCRTDd2 control), trans-stimulation, non-expressing oocytes (non-expressing oocytes [5]; [test solute]i = 45 mM (intracellular; 30 mM for some solutes due to solubility)): 3.2 ± 0.05 % PfCRTDd2 control
activity at 5000 µM (PfCRT^Ecu1110 [6]; pH 5.5, read-out: PfCRT-mediated [3H]CQ transport, trans-stimulation (% PfCRTEcu1110 control), [test solute]i = 5 mM (intracellular), PfCRTEcu1110 oocytes, normalised to oocyte type control): 96 ± 2.6%
activity at 5000 µM (PfCRT^Ecu1110 [6]; pH 5.5, read-out: Uptake of [3H]CQ (% PfCRTEcu1110 control), trans-stimulation, PfCRTEcu1110 oocytes, [test solute]i = 5 mM, total [3H]CQ transport, normalised to the oocyte type control): 98 ± 3.2%
activity at 45000 µM (PfCRT^Ecu1110 [6]; pH 5.5, read-out: Uptake of [3H]CQ (% PfCRTEcu1110 control), trans-stimulation, PfCRTEcu1110 oocytes, [test solute]i = 45 mM (30 mM for some solutes due to solubility), total [3H]CQ transport, normalised to the oocyte type control): 100 ± 3.5%
activity at 5000 µM (PfCRT^Ecu1110 [6]; read-out: Uptake of [3H]CQ (% PfCRTDd2 control), trans-stimulation, PfCRTEcu1110, total [3H]CQ transport, [test solute]i = 5 mM (intracellular), mean ± SEM, SEM): 35 ± 1.3%
activity at 45000 µM (PfCRT^Ecu1110 [6]; read-out: Uptake of [3H]CQ (% PfCRTDd2 control), trans-stimulation, PfCRTEcu1110, total [3H]CQ transport, [test solute]i = 45 mM (intracellular; 30 mM for some solutes due to solubility), mean ± SEM, SEM): 36 ± 1.7%
activity at 5000 µM (PfCRT^3D7 [7]; PfCRT3D7 oocytes, [test solute]i = 5 mM, total [3H]CQ transport, normalised to the oocyte type control, read-out: Uptake of [3H]CQ (% PfCRT3D7 control), trans-stimulation): 100 ± 2.4%
[3H]CQ transport (% PfCRT3D7 control), trans-stimulation, PfCRT3D7 (PfCRT^3D7 [7]; SEM): 0.3 ± 0.02 % PfCRT3D7 control
activity at 5000 µM (PfCRT^3D7 [7]; [test solute]i = 5 mM (intracellular), PfCRT3D7 oocytes, normalised to oocyte type control, read-out: PfCRT-mediated [3H]CQ transport, trans-stimulation (% PfCRT3D7 control)): 98 ± 3.4%
activity at 45000 µM (PfCRT^3D7 [7]; SEM, read-out: Uptake of [3H]CQ (% PfCRTDd2 control), trans-stimulation, PfCRT3D7): 3.2 ± 0.04%
activity at 45000 µM (PfCRT^3D7 [7]; read-out: PfCRT-mediated [3H]CQ transport, trans-stimulation (% PfCRT3D7 control)): 95 ± 4.1%
activity at 45000 µM (PfCRT^3D7 [7]; read-out: Uptake of [3H]CQ (% PfCRT3D7 control), trans-stimulation): 97 ± 2.8%
activity at 5000 µM (PfCRT^3D7 [7]; total [3H]CQ transport, [test solute]i = 5 mM (intracellular), mean ± SEM, SEM, read-out: Uptake of [3H]CQ (% PfCRTDd2 control), trans-stimulation, PfCRT3D7): 3.3 ± 0.03%
activity at 5000 µM (PfCRT^Dd2 [8]; pH 5.5, read-out: PfCRT-mediated [3H]CQ transport, trans-stimulation (% PfCRTDd2 control), [test solute]i = 5 mM (intracellular), PfCRTDd2 oocytes, normalised to oocyte type control): 95 ± 3.4%
activity at 5000 µM (PfCRT^Dd2 [8]; pH 5.5, read-out: Uptake of [3H]CQ (% PfCRTDd2 control), trans-stimulation, PfCRTDd2, total [3H]CQ transport, [test solute]i = 5 mM (intracellular), mean ± SEM, SEM): 97 ± 0.7%
activity at 5000 µM (PfCRT^Dd2 [8]; pH 5.5, read-out: Uptake of [3H]CQ (% PfCRTDd2 control), trans-stimulation, PfCRTDd2 oocytes, [test solute]i = 5 mM, total [3H]CQ transport, normalised to the oocyte type control): 97 ± 0.7%
activity at 45000 µM (PfCRT^Dd2 [8]; pH 5.5, read-out: Uptake of [3H]CQ (% PfCRTDd2 control), trans-stimulation, PfCRTDd2 oocytes, total [3H]CQ transport, normalised to the oocyte type control): 98 ± 2.2%
activity at 5000 µM (PfCRT^Dd2 [8]; pH 5.5, read-out: [3H]CQ transport (% PfCRTDd2 control), trans-stimulation, PfCRTDd2, trans-stimulation, [test solute]i = 5 mM (injected), PfCRT-mediated component (background subtracted), mean ± SEM, SEM): 95 ± 3.4%
activity at 45000 µM (PfCRT^Dd2 [8]; pH 5.5, read-out: [3H]CQ transport (% PfCRTDd2 control), trans-stimulation, PfCRTDd2, trans-stimulation, PfCRT-mediated component (background subtracted), mean ± SEM, SEM): 96 ± 2.9%
activity at 5000 µM (PfNT1; PfNT1 oocytes, [test solute]i = 5 mM, normalised to the oocyte type control, read-out: Uptake of [3H]CQ (% PfNT1 control), trans-stimulation): 100 ± 3.8%
activity at 45000 µM (PfNT1; SEM, read-out: Uptake of [3H]CQ (% PfCRTDd2 control), trans-stimulation, PfNT1): 2.3 ± 0.09%
activity at 45000 µM (PfNT1; read-out: Uptake of [3H]CQ (% PfNT1 control), trans-stimulation): 98 ± 3.3%
activity at 5000 µM (PfNT1; [test solute]i = 5 mM (intracellular), mean ± SEM, SEM, read-out: Uptake of [3H]CQ (% PfCRTDd2 control), trans-stimulation, PfNT1): 3%
inhibition at 500 µM (non-expressing oocytes [9]; [21]): 3.2 ± 0.08%
inhibition at 1000 µM (non-expressing oocytes [9]; [21]): 2.8 ± 0.07%
inhibition at 2000 µM (non-expressing oocytes [9]; [21]): 2.9 ± 0.04%
inhibition at 500 µM (non-expressing oocytes [9]; [22]): 100 ± 3.7%
inhibition at 1000 µM (non-expressing oocytes [9]; [22]): 99 ± 4.6%
inhibition at 2000 µM (non-expressing oocytes [9]; [22]): 99 ± 5.7%
Tested as potential co-substrate but not required for influx of VF-6 via PfCRT into the oocyte (PfCRT [10]): X
